Our source for the T/C values is PubChem BioAssay AID228 (DTP/NCI, 2004).

In this assay the test system is BDF1 mice, Friend leukemia sc, tumor weight T/C. In words: NCI In Vivo Anticancer Drug Screen. Data for tumor model Friend Virus Leukemia (Solid) (subcutaneous) in B6D2F1 (BDF1) mice. The following applies: endpoint: mean tumor weight, higher = larger tumour. On the procedure: The antitumor activity of compounds was measured in mice bearing transplantable tumors. Survival or tumor size were measured and the results are expressed as the measurement made in the treated group (T) divided by the measurement made in the vehicle treated control group (C). The tumor model used in this assay is Friend Virus Leukemia (Solid) (subcutaneous) in B6D2F1 (BDF1) mice

Setting [1] is: dose: 75.0 mg/kg/injection, schedule: Q01DX011 (ip), vehicle: saline.
[2] abbreviates: dose: 25.0 mg/kg/injection, schedule: Q01DX011 (ip), vehicle: carboxymethylcellulose (CMC).
Setting [3] is: dose: 100.0 mg/kg/injection, schedule: Q01DX011 (ip), vehicle: carboxymethylcellulose (CMC).
[4] abbreviates: dose: 125.0 mg/kg/injection, schedule: Q01DX011 (ip), vehicle: carboxymethylcellulose (CMC).
[5] abbreviates: dose: 250.0 mg/kg/injection, schedule: Q01DX011 (ip), vehicle: carboxymethylcellulose (CMC).
Where [6] appears, read: dose: 18.0 mg/kg/injection, schedule: Q01DX011 (ip), vehicle: carboxymethylcellulose (CMC).

“And” between values parts separate entries of the source, which are not always exact repeats. Equal values may be shown once. Inconclusive results are not listed.

As for `O=C1C=CC(=O)O1` (tested in a mixture with another compound), the T/C (dose: 7.5 mg/kg/injection, schedule: Q#A X022 (ip), vehicle: carboxymethylcellulose (CMC)) was 58 % of control; the T/C (dose: 15.5 mg/kg/injection, schedule: Q#A X022 (ip), vehicle: carboxymethylcellulose (CMC)) is 84 % of control; the T/C (dose: 125.0 mg/kg/injection, schedule: Q#A X022 (ip), vehicle: carboxymethylcellulose (CMC)) is 96 % of control; the T/C (dose: 250.0 mg/kg/injection, schedule: Q#A X022 (ip), vehicle: carboxymethylcellulose (CMC)) is 33 % of control.

Regarding `COc1cc([C@@H]2c3cc4c(cc3[C@H](O)[C@H]3COC(=O)[C@H]23)OCO4)cc(OC)c1OC`, the T/C reads like this: (dose: 0.13 mg/kg/injection, schedule: Q01DX011 (ip), vehicle: carboxymethylcellulose (CMC)) 86 % of control; (dose: 0.55 mg/kg/injection, schedule: Q01DX011 (ip), vehicle: carboxymethylcellulose (CMC)) 86 % of control; (dose: 135.0 micrograms/kg/injection, schedule: Q01DX011 (ip), vehicle: carboxymethylcellulose (CMC)) 83 % of control; (dose: 270.0 micrograms/kg/injection, schedule: Q01DX011 (ip), vehicle: carboxymethylcellulose (CMC)) 114 % of control; (dose: 550.0 micrograms/kg/injection, schedule: Q01DX011 (ip), vehicle: carboxymethylcellulose (CMC)) 75 % of control; (dose: 1100.0 micrograms/kg/injection, schedule: Q01DX011 (ip), vehicle: carboxymethylcellulose (CMC)) 87 % of control.

In the case of `CCOC(=O)NC`, the T/C by setting is: under setting [1], 114 % of control; (dose: 150.0 mg/kg/injection, schedule: Q01DX011 (ip), vehicle: saline) 98 % of control; (dose: 300.0 mg/kg/injection, schedule: Q01DX011 (ip), vehicle: saline) 75 % of control; (dose: 500.0 mg/kg/injection, schedule: Q01DX011 (ip), vehicle: saline) 48 % of control; (dose: 600.0 mg/kg/injection, schedule: Q01DX011 (ip), vehicle: saline) 53 % of control; (dose: 750.0 mg/kg/injection, schedule: Q01DX011 (ip), vehicle: saline) 37 % of control.

On to `CSc1ncnc2c1ncn2C1CCCO1` (stereo unspecified), for which the T/C is 96 % of control (dose: 12.0 mg/kg/injection, schedule: Q01DX011 (ip), vehicle: carboxymethylcellulose (CMC)); 45 % of control under setting [2]; 3 % of control and 9 % of control under setting [3].

Consider `O=[N+]([O-])c1ccccc1CSc1ncnc2nc[nH]c12`, for which the T/C is, setting by setting: (dose: 15.0 mg/kg/injection, schedule: Q01DX011 (ip), vehicle: carboxymethylcellulose (CMC)) 112 % of control; (dose: 31.0 mg/kg/injection, schedule: Q01DX011 (ip), vehicle: carboxymethylcellulose (CMC)) 111 % of control; (dose: 62.0 mg/kg/injection, schedule: Q01DX011 (ip), vehicle: carboxymethylcellulose (CMC)) 55 % of control and 48 % of control; under setting [4], 26 % of control and 48 % of control; under setting [5], 7 % of control; (dose: 500.0 mg/kg/injection, schedule: Q01DX011 (ip), vehicle: carboxymethylcellulose (CMC)) 2 % of control.

Take `ClCCn1cnc2c(SCc3ccccc3)ncnc21`: the T/C was 85 % of control under setting [6]; 35 % of control (dose: 37.0 mg/kg/injection, schedule: Q01DX011 (ip), vehicle: carboxymethylcellulose (CMC)); 32 % of control (dose: 75.0 mg/kg/injection, schedule: Q01DX011 (ip), vehicle: carboxymethylcellulose (CMC)); 11 % of control and 35 % of control (dose: 150.0 mg/kg/injection, schedule: Q01DX011 (ip), vehicle: carboxymethylcellulose (CMC)); 4 % of control (dose: 300.0 mg/kg/injection, schedule: Q01DX011 (ip), vehicle: carboxymethylcellulose (CMC)).

Consider `O=c1c[n+](-c2ccccc2)[nH]o1`, for which the T/C is 89 % of control (dose: 22.5 mg/kg/injection, schedule: Q01DX011 (ip), vehicle: carboxymethylcellulose (CMC)); 76 % of control (dose: 45.0 mg/kg/injection, schedule: Q01DX011 (ip), vehicle: carboxymethylcellulose (CMC)); 74 % of control (dose: 90.0 mg/kg/injection, schedule: Q01DX011 (ip), vehicle: carboxymethylcellulose (CMC)); 78 % of control (dose: 180.0 mg/kg/injection, schedule: Q01DX011 (ip), vehicle: carboxymethylcellulose (CMC)).

In the case of `O=C(Nc1ccc(C2=NCCCN2)cc1)c1ccc(C(=O)Nc2ccc(C3=NCCCN3)cc2)cc1`, the T/C (dose: 0.75 mg/kg/injection, schedule: Q01DX011 (ip), vehicle: carboxymethylcellulose (CMC)) is 121 % of control; the T/C (dose: 1.5 mg/kg/injection, schedule: Q01DX011 (ip), vehicle: carboxymethylcellulose (CMC)) was 102 % of control; the T/C (dose: 3.0 mg/kg/injection, schedule: Q01DX011 (ip), vehicle: carboxymethylcellulose (CMC)) was 44 % of control; the T/C (dose: 3.75 mg/kg/injection, schedule: Q01DX011 (ip), vehicle: carboxymethylcellulose (CMC)) is 75 % of control; the T/C (dose: 5.0 mg/kg/injection, schedule: Q01DX011 (ip), vehicle: carboxymethylcellulose (CMC)) was 42 % of control; the T/C (dose: 6.0 mg/kg/injection, schedule: Q01DX011 (ip), vehicle: carboxymethylcellulose (CMC)) is 64 % of control. The T/C (dose: 7.5 mg/kg/injection, schedule: Q01DX011 (ip), vehicle: carboxymethylcellulose (CMC)) is 10 % of control.

`CC(=O)[C@H]1CC[C@H]2[C@@H]3CCC4=CC(=O)CC[C@]4(C)[C@H]3CC[C@]12C`: the T/C reads like this: (dose: 250.0 mg/kg/injection, schedule: Q01DX011 (sc), vehicle: steriod suspending solution) 228 % of control; (dose: 500.0 mg/kg/injection, schedule: Q01DX011 (sc), vehicle: steriod suspending solution) 165 % of control; (dose: 750.0 mg/kg/injection, schedule: Q01DX011 (sc), vehicle: steriod suspending solution) 212 % of control; (dose: 1000.0 mg/kg/injection, schedule: Q01DX011 (sc), vehicle: steriod suspending solution) 291 % of control.

With `Nc1nc(=S)c2[nH]cnc2[nH]1`, the T/C by setting is: (dose: 0.25 mg/kg/injection, schedule: Q01DX011 (ip), vehicle: carboxymethylcellulose (CMC)) 53 % of control and 47 % of control; (dose: 0.4 mg/kg/injection, schedule: Q01DX011 (ip), vehicle: carboxymethylcellulose (CMC)) 33 % of control and 36 % of control; (dose: 0.66 mg/kg/injection, schedule: Q01DX011 (ip), vehicle: carboxymethylcellulose (CMC)) 23 % of control and 26 % of control.

Turning to `O=c1[nH]c(=O)n(C2CC(O)C(CO)O2)cc1Br` (stereo unspecified), the T/C is 72 % of control under setting [4] and 52 % of control under setting [5].

For the compound `CCOC(=O)NP(=O)(N1CC1)N1CC1`, the T/C by setting is: (dose: 2.87 mg/kg/injection, schedule: Q01DX011 (ip), vehicle: carboxymethylcellulose (CMC)) 78 % of control; (dose: 4.75 mg/kg/injection, schedule: Q01DX011 (ip), vehicle: carboxymethylcellulose (CMC)) 77 % of control; (dose: 9.5 mg/kg/injection, schedule: Q01DX011 (ip), vehicle: carboxymethylcellulose (CMC)) 36 % of control; (dose: 19.0 mg/kg/injection, schedule: Q01DX011 (ip), vehicle: carboxymethylcellulose (CMC)) 5 % of control.

In the case of `COS(C)(=O)=O`, the T/C is 167 % of control (dose: 9.0 mg/kg/injection, schedule: Q01DX011 (ip), vehicle: carboxymethylcellulose (CMC)); 116 % of control (dose: 9.37 mg/kg/injection, schedule: Q01DX011 (ip), vehicle: saline); 98 % of control under setting [6]; 114 % of control (dose: 18.75 mg/kg/injection, schedule: Q01DX011 (ip), vehicle: saline); 85 % of control (dose: 37.5 mg/kg/injection, schedule: Q01DX011 (ip), vehicle: saline); 76 % of control under setting [1]. The T/C (dose: 100.0 mg/kg/injection, schedule: Q01DX011 (ip), vehicle: saline) is 69 % of control.

Regarding `CC(/C=N/N=C(N)N)=N\N=C(N)N`, the T/C runs as follows: (dose: 12.5 mg/kg/injection, schedule: Q01DX011 (ip), vehicle: saline) 155 % of control; (dose: 25.0 mg/kg/injection, schedule: Q01DX011 (ip), vehicle: saline) 190 % of control; (dose: 50.0 mg/kg/injection, schedule: Q01DX011 (ip), vehicle: saline) 169 % of control.

With `CC/C(=C(/CC)c1ccc(O)cc1)c1ccc(O)cc1`, the T/C is, setting by setting: (dose: 6.5 mg/kg/injection, schedule: Q01DX011 (sc), vehicle: steriod suspending solution) 171 % of control and 244 % of control; (dose: 13.0 mg/kg/injection, schedule: Q01DX011 (sc), vehicle: steriod suspending solution) 169 % of control; (dose: 26.0 mg/kg/injection, schedule: Q01DX011 (sc), vehicle: steriod suspending solution) 119 % of control and 121 % of control; (dose: 52.0 mg/kg/injection, schedule: Q01DX011 (sc), vehicle: steriod suspending solution) 83 % of control.

As to `CC(C)(C)c1ccc(S)cc1`, the T/C runs as follows: under setting [2], 181 % of control; (dose: 50.0 mg/kg/injection, schedule: Q01DX011 (ip), vehicle: carboxymethylcellulose (CMC)) 121 % of control; under setting [3], 85 % of control.
